Test results from article PMC3844044 (Journal of medicinal chemistry, 2013).
Each block holds one compound with its values, some of them ahead of it.

How the values were obtained:
[1] = test system: human myelomonocytic THP-1 cells; experiment: Cell viability, THP-1 wild type cells, 72 hours; format: cell-based; conditions: screened at 10 μM and 5 μM
[2] = test system: bortezomib-resistant THP-1 cell line (BTZ500); experiment: Cell viability, bortezomib-resistant THP-1 cell line; format: cell-based, human
[3] = test system: NF-κB mediated gene transcription; conditions: read-out: NF-κB-luc IC50; Table 1; cell culture, previously reported; cited from earlier work
[4] = target: purified human 20S proteasome (Homo sapiens, UniProt P28074); experiment: Inhibition of the chymotryptic-like activity of purified human 20S proteasome; format: biochemical
[5] = test system: proteasome; conditions: read-out: reported IC50 for proteasome inhibition; cited from earlier work
[6] = conversion to inactive aromatic imidazole 5; ref 13b; cited from earlier work

SMILES: CCOC(=O)[C@]1(c2ccccc2)N=C(c2ccc(OC)cc2)N(Cc2ccccc2)[C@@H]1c1ccc(N)cc1 [compound 37]
cytotoxic activity (in words), THP-1 wild type [1]: weak cytotoxic activity
cytotoxic activity (in words), bortezomib-resistant BTZ500 ([2]; screened at 10 μM and 5 μM): weak cytotoxic activity

proteasome inhibitory activity (in words) [4]: depleted of activity
SMILES: c1ccc(CN2CCN=C2c2ccccc2)cc1 [compound 4]
IC50 [3]: > 10000 nM

proteasome inhibitory activity (in words) [4]: depleted of activity
SMILES: c1ccc(Cn2c(-c3ccccc3)nc(-c3ccccc3)c2-c2ccccc2)cc1 [compound 5]
IC50 [3]: > 10000 nM

proteasome inhibitory activity (in words) [4]: depleted of all activity
SMILES: CCOC(=O)[C@]1(c2ccccc2)N=C(c2ccccc2)N[C@@H]1c1ccccc1 [compound 11]

IC50 ([4]; IC50 proteasome inhibition): 500 nM
SMILES: CCOC(=O)[C@]1(c2ccccc2)N=C(c2ccccc2)N(Cc2ccccc2)[C@@H]1c1ccc(NCc2ccccc2)cc1 [compound 29]

SMILES: CC(C)C[C@H](NC(=O)[C@H](Cc1ccccc1)NC(=O)c1cnccn1)B(O)O [Bortezomib, bortezomib, reference compound]
% cell viability Resistant ([2]; BTZ500, bortezomib at 0.5 μM, 72 hours): unable to induce significant cytotoxicity

proteasome inhibitory activity (in words) [4]: depleted of activity
SMILES: CCOC(=O)[C@]1(c2ccccc2)N=C(c2ccccc2)N(C(=O)c2ccccc2)[C@@H]1c1ccccc1 [compound 13]

SMILES: c1ccc(CN2C(c3ccccc3)=N[C@H](c3ccccc3)[C@H]2c2ccccc2)cc1 [compound 2]
stability upon standing [6]: slowly isomerised and dehydrogenated

proteasome inhibitory activity (in words) [4]: depleted of activity
SMILES: CCOC(=O)[C@]1(c2ccccc2)N=C(c2ccccc2)N(C(C)=O)[C@@H]1c1ccccc1 [compound 12]

proteasome inhibitory activity (in words) [4]: depleted of activity
SMILES: c1ccc(CN2C(c3ccccc3)=N[C@@H](c3ccccc3)[C@H]2c2ccccc2)cc1 [compound 3]
IC50 [3]: > 10000 nM
stability upon standing [6]: slowly isomerised and dehydrogenated

proteasome inhibitory activity (in words) [4]: depleted of activity
SMILES: CCOC(=O)[C@]1(c2ccccc2)N=C(c2ccccc2)N(S(=O)(=O)c2ccc(C)cc2)[C@@H]1c1ccccc1 [compound 14]

proteasome inhibitory activity (in words) [4]: inactive
SMILES: CCOC(=O)[C@]1(c2ccccc2)N=C(c2ccccc2)N(Cc2ccccc2)[C@@H]1c1ccncc1 [compound 20]
